Article PMC5681660, “Reduced hepatitis B and D viral entry using clinically applied drugs as novel inhibitors of the bile acid transporter NTCP” (Scientific Reports, 2017)
Structures can show the parent of a compound that is named as a salt.

Assays:
human NTCP [1] = molecular target: T1, human NTCP (Homo sapiens, UniProt Q14973); experiment: Screening taurocholate uptake assay (96-well, [14C]taurocholate, 10 µM drug); conditions: for B-score functional assay: 10 µM drug
T1 sequence (Q14973 1-349): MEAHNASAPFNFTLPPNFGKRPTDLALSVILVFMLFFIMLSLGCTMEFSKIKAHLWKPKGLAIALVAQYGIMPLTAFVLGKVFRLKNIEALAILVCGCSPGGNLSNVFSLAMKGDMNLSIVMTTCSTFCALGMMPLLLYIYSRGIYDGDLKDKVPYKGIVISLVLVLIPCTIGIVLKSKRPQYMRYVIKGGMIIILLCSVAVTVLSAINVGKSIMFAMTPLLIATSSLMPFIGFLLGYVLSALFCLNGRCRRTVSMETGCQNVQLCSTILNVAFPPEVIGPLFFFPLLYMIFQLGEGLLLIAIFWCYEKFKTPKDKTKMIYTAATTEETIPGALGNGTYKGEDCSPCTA

human NTCP [2] = molecular target: T1, human NTCP; experiment: Screening fluorescent competitive Myrcludex B-FITC binding assay (96-well, 10 µM drug); conditions: 10 µM drug
[3] = Prestwick library screen, B-score of taurocholate uptake
[4] = combined ranking from functional and binding assay B-scores
[5] = Prestwick library screen, B-score of Myrcludex B-FITC binding
[6] = combined ranking from functional and binding screening assays
[7] = screen, Myrcludex B-FITC binding
[8] = Prestwick library screen, taurocholate uptake
[9] = ranking score beside the functional and binding assay B-scores of the screen
[10] = Prestwick library screen, Myrcludex B-FITC binding

Row | Structure (SMILES) | B-score functional assay (human NTCP [1]; [3]) | Ranking score (human NTCP [1]; [4]) | B-score binding assay (human NTCP [2]; [5]) | Ranking score (human NTCP [1]; [6]) | B-score functional assay (human NTCP [1]; screen, taurocholate uptake) | B-score binding assay (human NTCP [2]; [7]) | B-score functional assay (human NTCP [1]; [8]) | Ranking score (human NTCP [1]; [9]) | B-score binding assay (human NTCP [2]; [10])
1 | CO[C@@]1(NC(=O)Cc2cccs2)C(=O)N2C(C(=O)O)=C(COC(N)=O)CS[C@@H]21 [Cefoxitin sodium salt] | 1.114 | 868.493 | 0.041 |  |  |  |  |  | 
2 | CC(C(=O)O)c1ccc2c(c1)[nH]c1ccc(Cl)cc12 (stereo not drawn) [Carprofen] |  |  |  | 288.205 | -2.152 | 0.048 |  |  | 
3 | Cc1oncc1C(=O)Nc1ccc(C(F)(F)F)cc1 [Leflunomide] |  |  |  |  |  |  | 0.376 | 727.533 | -0.027
4 | CCCCCCCCNC(C)C(O)c1ccc(SC(C)C)cc1 (stereo not drawn) [Suloctidil] |  |  |  | 345.514 | 4.189 | -2.148 |  |  | 
5 | Cc1cc(C2CCCCC2)n(O)c(=O)c1.NCCO [Ciclopirox ethanolamine] | 0.776 | 1078.72 | 1.631 |  |  |  |  |  | 
6 | C[C@]12CC[C@@H]3c4ccc(O)cc4CC[C@H]3[C@@H]1CCC2=O [Estrone] | 0.06 | 855.9 | 0.944 |  |  |  |  |  | 
7 | CC(C)NC[C@@H](O)COc1ccc(CC(N)=O)cc1 [(R)-(+)-Atenolol] |  |  |  |  |  |  | 0.006 | 655.981 | 0.009
8 | NC1CCN(c2c(F)cc3c(=O)c(C(=O)O)cn(C4CC4)c3c2Cl)C1 (stereo not drawn) [Clinafloxacin] |  |  |  | 295.014 | -0.349 | -1.253 |  |  | 
9 | C[C@@H](O)[C@H]1C(=O)N2C(C(=O)O)=C(S[C@@H]3CN[C@H](C(=O)N(C)C)C3)[C@H](C)[C@H]12 [Meropenem] | 0.4 | 900.139 | 0.55 |  |  |  |  |  | 
10 | CCCCC(C)(O)C/C=C/[C@H]1[C@H](O)CC(=O)[C@@H]1CCCCCCC(=O)OC (mixture of isomers) [Misoprostol] |  |  |  |  |  |  | -0.231 | 671.728 | 0.662
11 | Nc1nc(=O)n([C@@H]2CS[C@H](CO)O2)cc1F [(-)-Emtricitabine] | 1.373 | 1006 | 0.464 |  |  |  |  |  | 
12 | Nc1ncnc2c1ncn2[C@@H]1O[C@H](CO)[C@@H](O)[C@@H]1O [Vidarabine] |  |  |  | 319.086 | -2.606 | 1.523 |  |  | 
13 | Nc1ccn([C@H]2CC[C@@H](CO)O2)c(=O)n1 [Zalcitabine] |  |  |  |  |  |  | 1.286 | 782.741 | -0.087
14 | O=C([O-])CCNC(=O)c1ccc(/N=N/c2ccc(O)c(C(=O)[O-])c2)cc1.[Na+].[Na+] [Balsalazide Sodium] |  |  |  | 403.097 | -0.35 | -0.506 |  |  | 
15 | COc1ccc(C[C@@H]2c3cc(OC)c(OC)cc3CC[N@+]2(C)CCC(=O)OCCCCCOC(=O)CC[N@@+]2(C)CCc3cc(OC)c(OC)cc3[C@H]2Cc2ccc(OC)c(OC)c2)cc1OC [Cisatracurium besylate] |  |  |  |  |  |  | 0.628 | 764.984 | -0.016
16 | C[C@]12CCC(=O)C=C1C=C[C@@H]1[C@@H]2CC[C@@]2(C)[C@H]1CC[C@@]2(O)CCC(=O)[O-].[K+] [Canrenoic acid potassium salt] |  |  |  |  |  |  | 0.356 | 751.562 | 0.007
17 | CC1CCc2cc(F)cc3c(=O)c(C(=O)O)cn1c23 (stereo not drawn) [Flumequine] | 2.117 | 855.599 | -0.028 |  |  |  |  |  | 
18 | Cc1cc(NC(=O)C2=C(O)c3ccccc3S(=O)(=O)N2C)no1 [Isoxicam] | 1.391 | 933.01 | 0.145 |  |  |  |  |  | 
19 | CCN1CC(CCN2CCOCC2)C(c2ccccc2)(c2ccccc2)C1=O.Cl (stereo not drawn) [Doxapram hydrochloride] |  |  |  | 446.058 | 0.629 | -1.194 |  |  | 
